# In patent US8614166B2, “Herbicidal composition for tolerant or resistant cotton crops” (Bayer Intellectual Property GmbH, priority 1998, dated 2013):
# Where a name gives a salt, the structure may show the parent alone.
# How the values were obtained:
# Test in all cases: Field trial in tolerant cotton, herbicidal action against weed
# Format in all cases: in vivo
# Datura stramonium = details: application in the 4-5-leaf stage, scoring 3 weeks after application
# Method: (§1) Transgenic cotton plants with a resistance to one or more herbicides (A) together with typical weed plants were grown in the open on 2×5 m plots under natural field conditions; alternatively, weed infestation occurred naturally when the cotton plants were grown.
# (§2) […] The damage to, and the development of, all aerial parts of the plants was recorded. Scoring was done on the basis of a percentage sale (100% action=all plants destroyed; 50% action=50% of the plants and green parts of the plants destroyed; 0% action=no recognizable effect=like control plot. The mean of the score values of in each case 4 plots was calculated.
# Echinocloa colonum = details: application in the 4-5-leaf stage, scoring 3 weeks after application
# Method: as §1, §2
# Ipomoea hederacea = details: application in the 4-leaf stage, scoring 23 days after application
# Method: as §1, §2
# Abutilon theophrasti = details: dose 300 g of a.s./ha; application in the 4-5 leaf stage; scoring 27 days after application
# Method: as §1
# (§3) 2, 4, 6 and 8 weeks after the application, the herbicidal activity of the active substances or active substance mixtures was scored visually with reference to the treated plots in comparison to untreated control plots. The damage to, and the development of, all aerial parts of the plants was recorded. Scoring was done on the basis of a percentage sale (100% action=all plants destroyed; 50% action=50% of the plants and green parts of the plants destroyed; 0% action=no recognizable effect=like control plot. The mean of the score values of in each case 4 plots was calculated.
# Sorghum halepense = details: application in the 4-leaf stage, scoring 30 days after application
# Method: as §1, §3
smiles,measurement,setting,value
"CP(=O)(O)CCC(N)C(=O)O (stereo not shown) [(A1.2), glufosinate-monoammonium salt]",Herbicidal action (%) against Datura stramonium,Datura stramonium; dose 450 g of a.s./ha,75%
same,Herbicidal action (%) against Datura stramonium,Datura stramonium; dose 600 g of a.s./ha,90%
same,Herbicidal action (%) against Datura stramonium,Datura stramonium; dose 1000 g of a.s./ha,100%
same,Herbicidal action (%) against Echinocloa colonum,Echinocloa colonum; dose 450 g of a.s./ha,0%
same,Herbicidal action (%) against Echinocloa colonum,Echinocloa colonum; dose 600 g of a.s./ha,15%
same,Herbicidal action (%) against Echinocloa colonum,Echinocloa colonum; dose 1000 g of a.s./ha,30%
same,Herbicidal action (%) against Ipomoea hederacea,Ipomoea hederacea; dose 400 g of a.s./ha,43%
same,Herbicidal action (%) against Ipomoea hederacea,Ipomoea hederacea; dose 600 g of a.s./ha,75%
same,Herbicidal action (%) against Abutilon theophrasti,Abutilon theophrasti,30%
same,Herbicidal action (%) against Sorghum halepense,Sorghum halepense; dose 300 g of a.s./ha,15%
same,Herbicidal action (%) against Sorghum halepense,Sorghum halepense; dose 500 g of a.s./ha,53%
"COCc1cnc(C2=NC(C)(C(C)C)C(=O)N2)c(C(=O)O)c1 (stereo not shown) [(A3.5), imazamox]",Herbicidal action (%) against Ipomoea hederacea,Ipomoea hederacea; dose 35 g of a.s./ha,42%
"CN(C)C(=O)Nc1cccc(C(F)(F)F)c1 [(B1.2), N,N-dimethyl-N′-[3-(trifluoromethyl)phenyl]urea]",Herbicidal action (%) against Ipomoea hederacea,Ipomoea hederacea; dose 1120 g of a.s./ha,37%
"CCc1cccc(C)c1N(C(=O)CCl)C(C)COC (stereo not shown) [(B1.9), 2-chloro-N-(2-ethyl-6-methylphenyl)-N-(2-methoxy-1-methylethyl)acetamide]",Herbicidal action (%) against Datura stramonium,Datura stramonium; dose 930 g of a.s./ha,0%
same,Herbicidal action (%) against Echinocloa colonum,Echinocloa colonum; dose 930 g of a.s./ha,88%
"CCC(CC)Nc1c([N+](=O)[O-])cc(C)c(C)c1[N+](=O)[O-] [(B1.12), N-(1-ethylpropyl)-2,6-dinitro-3,4-xylidine]",Herbicidal action (%) against Ipomoea hederacea,Ipomoea hederacea; dose 925 g of a.s./ha,42%
"COc1cc(OC)nc(Sc2cccc(Cl)c2C(=O)[O-])n1.[Na+] [(B2.4), sodium 2-chloro-6-(4,6-dimethoxypyrimidin-2-ylthio)benzoate]",Herbicidal action (%) against Ipomoea hederacea,Ipomoea hederacea; dose 105 g of a.s./ha,42%
"CCCC(=NOCC)C1=C(O)CC(C2CCCSC2)CC1=O (stereo not shown) [(B4.2), 2-(1-ethoxyiminobutyl)-3-hydroxy-5-thian-3-ylcyclohex-2-enone]",Herbicidal action (%) against Sorghum halepense,Sorghum halepense; dose 125 g of a.s./ha,58%
"N#Cc1cc(Br)c(O)c(Br)c1 [(B5.1), 3,5-dibromo-4-hydroxybenzonitrile]",Herbicidal action (%) against Ipomoea hederacea,Ipomoea hederacea; dose 560 g of a.s./ha,32%
